Source: patent publication US8652997B2, “Active compound combinations” (Bayer CropScience AG, priority 2009, dated 2014)
Where two headings read alike, the source gives them in different places.

Assays:
Assay type in all cases: in vivo
Septoria tritici = test: Septoria tritici-test (wheat)/preventive; details: preventive spray, evaluated 21 days after inoculation
Method: Septoria tritici-Test (Wheat)/Preventive
(§1) Solvent: 49 parts by weight of n,n-dimethylacetamid
(§2) Emulsifier: 1 part by weight of alkylaryl polyglycol ether
(§3) To produce a suitable preparation of active compound, 1 part by weight of active compound or active compound combination is mixed with the stated amounts of solvent and emulsifier, and the concentrate is diluted with water to the desired concentration.
(§4) To test for preventive activity, young plants are sprayed with the preparation of active compound or active compound combination at the stated rate of application.
After the spray coating has been dried, the plants are sprayed with a spore suspension of Septoria tritici. The plants remain for 48 hours in an incubation cabinet at approximately 20° C. and a relative atmospheric humidity of approximately 100% and afterwards for 60 hours at approximately 15° C. in a translucent incubation cabinet at a relative atmospheric humidity of approximately 100%.
The plants are placed in the greenhouse at a temperature of approximately 15° C. and a relative atmospheric humidity of approximately 80%.
The test is evaluated 21 days after the inoculation. 0% means an efficacy which corresponds to that of the control, while an efficacy of 100% means that no disease is observed.

[1] = test system: larvae of the diamondback moth (Plutella xylostella); test: Plutella xylostella test (sprayed cabbage leaves)
Method: (§5) Solvent: 7 parts by weight of dimethylformamide
(§6) Emulsifier: 2 parts by weight of alkylaryl polyglycolether
(§7) To produce a suitable preparation of active compound, 1 part by weight of active compound is mixed with the stated amount of solvent and emulsifier, and the concentrate is diluted with emulsifier-containing water to the desired concentration.
Cabbage leaves (Brassica oleracea) are treated by being sprayed into the preparation of the active compound of the desired concentration and are infested with larvae of the diamondback moth (Plutella xylostella) as long as the leaves are still moist.
After the specified period of time, the mortality in % is determined. 100% means that all the caterpillars have been killed; 0% means that none of the caterpillars have been killed.

[2] = test system: two spotted spidermites (Tetranychus urticae); test: Tetranychus urticae test (sprayed French bean leaves)
Method: as §5, §6, §7
French bean leaves (Phaseolus vulgaris) which are heavily infested with all stages of the two spotted spidermites (Tetranychus urticae) are treated by being sprayed into the preparation of the active compound of the desired concentration.
After the specified period of time, the mortality in % is determined. 100% means that all the spider mites have been killed; 0% means that none of the spider mites have been killed.

[3] = test system: Fusarium nivale (var. majus); test: Fusarium nivale (var. majus)-test (wheat)/preventive; details: preventive spray, evaluated 5 days after inoculation
Method: Fusarium nivale (Var. majus)-Test (Wheat)/Preventive
as §1, §2, §3, §4
After the spray coating has been dried, the plants are slightly injured by using a sandblast and afterwards they are sprayed with a conidia suspension of Fusarium nivale (var. majus).
The plants are placed in the greenhouse under a translucent incubation cabinet at a temperature of approximately 10° C. and a relative atmospheric humidity of approximately 100%.
The test is evaluated 5 days after the inoculation. 0% means an efficacy which corresponds to that of the control, while an efficacy of 100% means that no disease is observed.

[4] = 48 h, read-out: Mortality in % after 2d
[5] = 96 h, read-out: Mortality in % after 4d
[6] = 48 h, after 2 d, read-out: Mortality in % after 2d
[7] = 96 h, after 4 d, read-out: Mortality in % after 4d

For `CCOC(=O)OC1=C(c2cc(C)ccc2C)C(=O)N[C@]12CC[C@@H](OC)CC2` [Spirotetramat, spirotetramat], the “Efficacy in % found” value (Septoria tritici; 250 g/ha) was 22%, the mortality at 20 ppm [1, 4] was 20% and the mortality at 20 ppm [2, 5] was 55%.

`CCC(C)(C)C(=O)OC1=C(c2ccc(Cl)cc2Cl)C(=O)OC12CCCCC2` [Spirodiclofen, spirodiclofen] was tested, and the “Efficacy in % found” value ([3]; 250 g/ha) was 13%, the “Efficacy in % found” value (Septoria tritici; 250 g/ha) was 22% and the mortality at 20 ppm [1, 5] was 15%. For the same compound, the mortality at 20 ppm [2, 4] was 30%.

In the case of `Cc1cc(C)c(C2=C(OC(=O)CC(C)(C)C)C3(CCCC3)OC2=O)c(C)c1` [Spiromesifen, spiromesifen], the “Efficacy in % found” value ([3]; 250 g/ha) is reported as 38%, the mortality at 500 ppm [1, 5] is reported as 25% and the mortality at 100 ppm [2, 5] is reported as 75%.

With `O=[N+]([O-])/N=C1\NCCN1Cc1ccc(Cl)nc1` [Imidacloprid, imidacloprid] the “Efficacy in % found” value (Septoria tritici; 500 g/ha) was 22%, the “Efficacy in % found” value (Septoria tritici; 1000 g/ha) was 22% and the mortality at 20 ppm [1, 4] was 0%. It also gave a mortality at 100 ppm [1, 4] of 20%.

For `N#Cc1ccccc1NC(=O)c1snc(Cl)c1Cl` [Isotianil, 3,4-dichloro-N-(2-cyanophenyl)-5-isothiazolecarboxamide], the “Efficacy in % found” value ([3]; 1000 g/ha) was 25%, the “Efficacy in % found” value (Septoria tritici; 500 g/ha) was 33% and the “Efficacy in % found” value (Septoria tritici; 1000 g/ha) was 33%. It also gave a mortality at 200 ppm [1, 6] of 5%, a mortality at 200 ppm [1, 7] of 5% and a mortality at 200 ppm [2, 6] of 0%. For the same compound, the mortality at 200 ppm [2, 7] was 0%.
